{"source": "patent US9872927B2", "about": "“Dye solution” (FLUORON GMBH, priority 2008, dated 2018)", "origin": "cited, not measured here", "key": {"[1]": {"conditions": "dye of U.S. Pat. No. 7,014,991"}}, "data": [{"smiles": "[2H]O[2H]", "note": "[Heavy water, D2O]", "values": [{"measurement": "concentration in water tolerated by eukaryotes", "setting": "eukaryotes", "value": "≤ 20", "unit": "%"}, {"measurement": "irritation in the area of application", "setting": "eukaryotes", "value": "does not lead to any irritation"}]}, {"smiles": "O=C1/C(=C2\\Nc3ccc(S(=O)(=O)O)cc3C2=O)Nc2ccc(S(=O)(=O)O)cc21", "note": "[indigotindisulfonate]", "values": [{"measurement": "cytotoxicity", "setting": "[1]", "value": "cytotoxic"}]}]}
